The values that follow come from patent publication US20020026053A1, “Novel 3-(substituted) -2- indolinones compounds and use thereof as inhibitors of protein kinase activity” (priority 1997, published 2002).

One experiment deals with FLK-1 receptor. The experiment can be described thus: FLK-1 Assay (cellular/catalytic ELISA, VEGF-stimulated phosphotyrosine). More on the design: concentration or dose not given beside the values. As to conditions: protocol P.110. Format: cell-based. In short, it runs like this:
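Receptor phosphotyrosine ELISA: Flk-1-expressing NIH3T3 C7#3 cells, starved overnight in 0.1% FBS medium, received compound (1:200 final dilution, 0.5% DMSO) for 2 h at 37 °C, then VEGF. Anti-FLK-1-captured receptor was probed with anti-phosphotyrosine UB40 and peroxidase/ABTS read-out, relative to cells without compound.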

In the next experiment the test system is PDGF-R. The experiment can be described thus: PDGF-R Assay (cellular ELISA, U1242 cells). As to conditions: protocol P.119. More on the design: concentration or dose not given beside the values. Format: cell-based. Summed up:
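Cellular ELISA for receptor autophosphorylation: after 2 hr test-compound treatment of serum-free U1242 cells at 37°C, ligand is added for 5–10 min, cells are lysed (HNTG) and receptor captured by specific antibody. Anti-phosphotyrosine plus secondary antibody with ABTS colour read at 410/630 nm, compared with compound-free control cells.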

Each structure is given as a SMILES string.

Consider `CNS(=O)(=O)c1ccc2c(c1)C(=Cc1ccc(O)cc1Cl)C(=O)N2` [10739/D06], for which the “Flk Kinase % Inhibition (P.110)” value in the experiment with FLK-1 receptor was 9.0%. Further, the “PDGF Kinase % Inhibition (P.119)” value with PDGF-R is listed as −43.8%.
In the same order, the values of `COc1ccc(Oc2cccc(C=C3C(=O)Nc4c(Br)cc(Br)c(C)c43)c2)cc1` [10739/H08] are 4.0% and −3.5%.
In the same order, the values of `Cc1c(Br)ccc2c1C(=Cc1ccc(OCCCN(C)C)cc1)C(=O)N2` [10739/C09] are 10.0% and 105.6%.
In the same order, the values of `O=C1Nc2ccc(CCCl)cc2C1=Cc1ccc(OCc2ccccc2)cc1` [10739/G04] are 4.5% and −3.5%.
Take `COc1ccc(C=C2C(=O)Nc3c(Br)cc(Br)cc32)cc1C` [10739/A02]: the “Flk Kinase % Inhibition (P.110)” value in the experiment with FLK-1 receptor was found to be 1.2%. In the experiment on PDGF-R, the “PDGF Kinase % Inhibition (P.119)” value was 21.7%.
In the same order, the values of `COc1ccc(Oc2cccc(C=C3C(=O)Nc4ccc(CCCl)cc43)c2)cc1` [10739/G08] are 15.0% and 1.3%.
In the same order, the values of `CN(C)CCCOc1ccc(C=C2C(=O)Nc3ccc(I)cc32)cc1` [10739/B09] are −15.4% and 74.1%.
Take `O=C1Nc2ccc(S(=O)(=O)N3CCOCC3)cc2C1=Cc1ccoc1` [10739/F10]: the “Flk Kinase % Inhibition (P.110)” value in the experiment with FLK-1 receptor came out at 12.3%. In addition, in the experiment with PDGF-R, the “PDGF Kinase % Inhibition (P.119)” value stood at 4.2%.
In the same order, the values of `Cc1c(Br)cc(Br)c2c1C(=Cc1ccc(O)cc1Cl)C(=O)N2` [10739/H06] are 35.6% and −17.1%.
Consider `O=C1Nc2ccc(I)cc2C1=Cc1cc(O)c(O)c(O)c1` [10739/B07], for which, in the experiment with FLK-1 receptor, the “Flk Kinase % Inhibition (P.110)” value is reported as 1.1%. Moreover, the “PDGF Kinase % Inhibition (P.119)” value with PDGF-R was found to be 19.8%.
In the same order, the values of `O=C1Nc2c(Br)cc(Br)cc2C1=Cc1cccc(OCc2ccccc2)c1` [10739/A03] are 2.9% and 15.4%.
In the same order, the values of `Cc1c(Br)cc(Br)c2c1C(=Cc1cccc(OCc3ccccc3)c1)C(=O)N2` [10739/H03] are 1.6% and −19.5%.
Taken in the same sequence, the figures for `O=C1Nc2ccc(S(=O)(=O)Nc3ccc(C(F)(F)F)cc3)cc2C1=Cc1cc(O)c(O)c(O)c1` [10739/E07] were 10.0% and 48.4%.
Regarding `O=C1Nc2ccc(S(=O)(=O)N3CCOCC3)cc2C1=CC1COc2ccccc2O1` (stereo not shown) [10739/F05], the “Flk Kinase % Inhibition (P.110)” value in the experiment on FLK-1 receptor was 8.7%. Moreover, the “PDGF Kinase % Inhibition (P.119)” value with PDGF-R was −4.5%.
Taken in the same sequence, the figures for `CNS(=O)(=O)c1ccc2c(c1)C(=CC1COc3ccccc3O1)C(=O)N2` (stereo not shown) [10739/D05] were 12.2% and −6.9%.
Turning to `CN(C)CCCOc1ccc(C=C2C(=O)Nc3c(Br)cc(Br)cc32)cc1` [10739/A09], the “Flk Kinase % Inhibition (P.110)” value in the experiment with FLK-1 receptor was −9.1%. In addition, the “PDGF Kinase % Inhibition (P.119)” value in the experiment with PDGF-R was −0.6%.
Turning to `CNS(=O)(=O)c1ccc2c(c1)C(=Cc1cccc(OCc3ccccc3)c1)C(=O)N2` [10739/D03], the “Flk Kinase % Inhibition (P.110)” value with FLK-1 receptor was −18.3%. For the same molecule, the “PDGF Kinase % Inhibition (P.119)” value with PDGF-R was determined as 14.4%.
Consider `COc1ccc(Oc2cccc(C=C3C(=O)Nc4ccc(S(=O)(=O)N5CCOCC5)cc43)c2)cc1` [10739/F08], for which the “Flk Kinase % Inhibition (P.110)” value in the experiment on FLK-1 receptor is reported as 7.0%. In addition, the “PDGF Kinase % Inhibition (P.119)” value in the experiment on PDGF-R was 9.1%.
In the same order, the values of `COc1ccc(C=C2C(=O)Nc3ccc(CCCl)cc32)cc1C` [10739/G02] are 5.9% and −12.2%.
Turning to `Cc1c(Br)ccc2c1C(=CC1COc3ccccc3O1)C(=O)N2` (stereo not shown) [10739/C05], the “Flk Kinase % Inhibition (P.110)” value in the experiment with FLK-1 receptor was determined as 5.6%. The “PDGF Kinase % Inhibition (P.119)” value in the experiment with PDGF-R is 31.4%.
Taken in the same sequence, the figures for `O=C1Nc2ccc(S(=O)(=O)N3CCOCC3)cc2C1=Cc1ccc(OCc2ccccc2)cc1` [10739/F04] were 26.3% and −4.0%.
Taken in the same sequence, the figures for `Cc1c(Br)cc(Br)c2c1C(=Cc1cc(O)c(O)c(O)c1)C(=O)N2` [10739/H07] were −1.4% and 14.9%.
For the molecule `Cc1c(Br)ccc2c1C(=Cc1cc(O)c(O)c(O)c1)C(=O)N2` [10739/C07], the “Flk Kinase % Inhibition (P.110)” value in the experiment on FLK-1 receptor was −14.5%. For the same molecule, the “PDGF Kinase % Inhibition (P.119)” value in the experiment on PDGF-R was found to be 44.5%.
Taken in the same sequence, the figures for `COc1ccc(C=C2C(=O)Nc3c(Br)cc(Br)c(C)c32)cc1C` [10739/H02] were 2.2% and −18.6%.
In the same order, the values of `O=C1Nc2ccc(I)cc2C1=Cc1cccc(OCc2ccccc2)c1` [10739/B03] are 3.5% and 1.8%.
Turning to `COc1ccc(C=C2C(=O)Nc3ccc(I)cc32)cc1C` [10739/B02], the “Flk Kinase % Inhibition (P.110)” value in the experiment with FLK-1 receptor amounted to 2.1%. Further, the “PDGF Kinase % Inhibition (P.119)” value with PDGF-R worked out at 5.2%.
Taken in the same sequence, the figures for `CN(C)CCCOc1ccc(C=C2C(=O)Nc3ccc(CCCl)cc32)cc1` [10739/G09] were 3.1% and 13.9%.
In the same order, the values of `Cc1c(Br)ccc2c1C(=Cc1ccc(CO)o1)C(=O)N2` [10739/C11] are 70.6% and 9.1%.
For `O=C1Nc2ccc(S(=O)(=O)Nc3ccc(C(F)(F)F)cc3)cc2C1=CC1COc2ccccc2O1` (stereo not shown) [10739/E05], the “Flk Kinase % Inhibition (P.110)” value with FLK-1 receptor is 28.0%. The “PDGF Kinase % Inhibition (P.119)” value with PDGF-R is 10.6%.
